One assay relates to T47D cells. Nature of the assay: Cellular growth inhibition assay for T47D cells (CellTiter-Glo, 72 hours). Type of assay: cell-based, human. The conditions noted are these: Homo sapiens, T47D, 72 h, 72 hours treatment. As to the method: T47D cells were purchased from American Type Cell Culture (ATCC Cat #HTB-133) and then seeded on poly-D-lysine coated, black clear-bottom 384-well plates at 3000/well in 25 μL Dulbecco's Modified Eagle Medium (DMEM) supplemented with 10% w/w Fetal bovine serum (FBS), 0.2 units/mL recombinant human insulin (Gibco Cat #12585014), and 1% w/w Pen-Strep. Pen-Strep is a commercially available mixture of penicillin G and streptomycin, which is used in mammalian cell culture media to prevent bacterial contamination. Dulbecco's Modified Eagle Medium (DMEM) supplemented with 10% w/w fetal bovine serum (FBS), 0.2 units/mL recombinant human insulin, and 1% w/w Pen-Strep is herein referred to as Treatment Medium. Following seeding of cells in the plates, the plates were spun at 300×g for 30 seconds, then equilibrated to room temperature for 30 minutes, and then deposited in a humidified tissue culture incubator maintained at 37° C. with 5% CO2.
At 24 hours after seeding of the cells, dilutions of test compound were prepared in DMSO and dissolved in Treatment Medium, to achieve a final DMSO concentration of 0.5% w/w, thereby providing the Test Compound Solution. A 25 μL aliquot of the Test Compound Solution was added to cells in the well plates. An equal volume of a solution containing DMSO and Treatment Medium was used as a negative control. Following treatment of cells with Test Compound Solution or said equal volume of a solution containing DMSO and Treatment Medium, the plates were spun at 300×g for 30 seconds, and then left in an incubator for 72 hours.
At the end of the treatment duration, cell viability was quantified with CellTiter-Glo 2.0 reagent (Promega Cat #G9243). For this purpose, plates were equilibrated to room temperature for 30 minutes, and then 25 μL of CellTiter-Glo 2.0 reagent was added to cells in the plate wells. Plates were then agitated on a shaker for two minutes at 500 rpm and subsequently incubated at room temperature for 10 minutes. Following incubation, the plates were spun at 3000×g for 30 seconds, then sealed with an optical adhesive cover, and luminescence readings were measured with an EnVision Plate Reader (Perkin Elmer).
Data was normalized using zero luminescence for baseline. A four-parameter non-linear regression curve fit was applied to dose-response data in GraphPad Prism data analysis software to determine the half-maximal growth inhibitory concentration (GI50) for each test compound.
(In general: Cellular ATP, detected with luciferase, serves as a proxy for viable cell number.)

A further assay has as its system VCaP cells. Nature of the assay: Cellular growth inhibition assay for VCaP cells (CellTiter-Glo, 72 hours). It is filed as cell-based, human. The method, boiled down: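 Luminescent viability signal after 72 h of compound exposure gave GI50 values by four-parameter nonlinear regression. Compounds were added in 0.5% DMSO to cells plated 24 h earlier at 5000/well in DMEM containing 10% FBS.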

Assay [1] concerns T-Rex 293 cell line SC3 cells having increased expression of androgen receptor protein due to exposure to doxycycline. Nature of the assay: Cellular growth inhibition assay, T-Rex 293 SC3 cells with doxycycline (CellTiter-Glo, 72 hours). Type of assay: cell-based. As to conditions: T-Rex 293 SC3 cells with increased androgen receptor expression due to doxycycline (10 ng/mL). The method, boiled down:
(§1)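 Growth inhibition is measured in an inducible AR-expressing T-Rex 293 clone, SC3, cultured with or without 10 ng/mL doxycycline in hormone-depleted medium. Test compounds are applied for 72 hours. GI50 values derive from CellTiter-Glo 2.0 signal fitted by four-parameter regression.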

The test system of assay [2] is T-Rex 293 cell line SC3 cells lacking increased expression of androgen receptor protein. Nature of the assay: Cellular growth inhibition assay, T-Rex 293 SC3 cells without doxycycline (CellTiter-Glo, 72 hours). Type of assay: cell-based. As to conditions: T-Rex 293 cell line SC3 cells not exposed to doxycycline (lacking increased androgen receptor expression). The method, boiled down:
as §1

The values below come from patent publication US20260109707A1, “HETEROBIFUNCTIONAL COMPOUNDS AND METHODS OF TREATING DISEASE” (Halda Therapeutics OpCo. Inc., priority 2022, published 2026).

Like-named read-outs stand apart in the source and are kept apart here. A value given as a limit tells only on which side of the number the result lay.

As a reminder, the GI50 is the concentration giving 50% growth inhibition. High values mean less potent growth inhibition, low ones more potent growth inhibition.

As to `Cc1sc2c(c1C)C(c1ccc(C[C@H]3CCC4CN(c5ccc(C(=O)N[C@H]6CC[C@H](Oc7ccc(C#N)c(Cl)c7)CC6)nn5)CCN4C3)cc1)=N[C@@H](Cc1ncco1)c1nnc(C)n1-2` (stereo partly shown) [I-258], the GI50 was less than 0.5 µM in the assay with T47D cells and less than 0.5 µM in the assay with VCaP cells (Homo sapiens, VCaP, 72 h).

With `Cc1sc2c(c1C)C(c1ccc(C[C@@H]3CCC4CN(c5ccc(C(=O)N[C@H]6CC[C@H](Oc7ccc(C#N)c(Cl)c7)CC6)nn5)CCN4C3)cc1)=N[C@@H](Cc1ncco1)c1nnc(C)n1-2` (stereo partly shown) [I-259], the GI50 with T47D cells was less than 0.5 µM; in the assay with VCaP cells (Homo sapiens, VCaP, 72 h), less than 0.5 µM.

As to `Cc1sc2c(c1C)C(c1ccc(OC[C@H]3C[C@]4(CCCN(c5ccc(C(=O)N[C@H]6CC[C@H](Oc7ccc(C#N)c(Cl)c7)CC6)nn5)C4)C3)cc1)=N[C@@H](C)c1nnc(C)n1-2` [I-309], the GI50 in assay [1] (72 h) was less than 0.5 µM; with T47D cells it was 0.5 to 1.5 µM; in assay [2] (72 h) it was more than 3 µM.

For `Cc1sc2c(c1C)C(c1ccc(NCCC3CCCN(c4ncc(C(=O)N[C@H]5CC[C@H](Oc6ccc(C#N)c(Cl)c6)CC5)cn4)C3)cc1)=NC(Cc1ncco1)c1nnc(C)n1-2` (stereo partly shown) [I-800], the GI50 in assay [1] (72 h) is less than 0.5 µM; with VCaP cells (Homo sapiens, VCaP, 72 h) it was less than 0.5 µM; in assay [2] (72 h), less than 0.5 µM.

On to `Cc1sc2c(c1C)C(c1ccc(N[C@@H]3CCC[C@H](Nc4ncc(C(=O)N[C@H]5CC[C@H](Oc6ccc(C#N)c(Cl)c6)CC5)cn4)C3)cc1)=NC(Cc1ncco1)c1nnc(C)n1-2` (stereo partly shown) [I-801], for which the GI50 in assay [1] (72 h) is less than 0.5 µM; in the assay on VCaP cells (Homo sapiens, VCaP, 72 h), less than 0.5 µM; in assay [2] (72 h), less than 0.5 µM.

`Cc1sc2c(c1C)C(c1ccc(N3C4CC(=O)CC3CN(c3ncc(C(=O)N[C@H]5CC[C@H](Oc6ccc(C#N)c(Cl)c6)CC5)cn3)C4)cc1)=NC(Cc1ncco1)c1nnc(C)n1-2` (stereo partly shown) [I-802]: the GI50 was less than 0.5 µM in assay [1]; less than 0.5 µM in the assay with VCaP cells (Homo sapiens, VCaP, 72 h); 0.5 to 1.5 µM in assay [2].

Regarding `Cc1sc2c(c1C)C(c1ccc(N[C@H]3CCCCN(c4ncc(C(=O)N[C@H]5CC[C@H](Oc6ccc(C#N)c(Cl)c6)CC5)cn4)C3)cc1)=NC(Cc1ncco1)c1nnc(C)n1-2` (stereo partly shown) [I-803], the 50% growth inhibitory concentration (GI50) in assay [1] (72 h) was less than 0.5 µM; with VCaP cells (Homo sapiens, VCaP, 72 h), less than 0.5 µM; in assay [2] (72 h), more than 3 µM.

For `Cc1sc2c(c1C)C(c1ccc(N3CCC4(CCCN(c5ncc(C(=O)N[C@H]6CC[C@H](Oc7ccc(C#N)c(Cl)c7)CC6)cn5)C4)C3)cc1)=NC(Cc1ncco1)c1nnc(C)n1-2` (stereo partly shown) [I-804], the 50% growth inhibitory concentration (GI50) is less than 0.5 µM in assay [1] (72 h); less than 0.5 µM with VCaP cells (Homo sapiens, VCaP, 72 h); more than 3 µM in assay [2] (72 h).

On to `Cc1sc2c(c1C)C(c1ccc(N3C[C@@H]4[C@H](C3)[C@H]4Nc3ncc(C(=O)N[C@H]4CC[C@H](Oc5ccc(C#N)c(Cl)c5)CC4)cn3)cc1)=NC(Cc1ncco1)c1nnc(C)n1-2` (stereo partly shown) [I-805], for which the GI50 is less than 0.5 µM in assay [1] (72 h); less than 0.5 µM in the assay with VCaP cells (Homo sapiens, VCaP, 72 h); less than 0.5 µM in assay [2] (72 h).

For the compound `Cc1sc2c(c1C)C(c1ccc(NCCCC3CCN(c4ncc(C(=O)N[C@H]5CC[C@H](Oc6ccc(C#N)c(Cl)c6)CC5)cn4)CC3)cc1)=NC(Cc1ncco1)c1nnc(C)n1-2` (stereo partly shown) [I-806], the GI50 in assay [1] (72 h) is less than 0.5 µM; in the assay with VCaP cells (Homo sapiens, VCaP, 72 h), less than 0.5 µM; in assay [2] (72 h), less than 0.5 µM.

`Cc1sc2c(c1C)C(c1ccc(NC[C@H]3CC[C@H](CNc4ncc(C(=O)N[C@H]5CC[C@H](Oc6ccc(C#N)c(Cl)c6)CC5)cn4)CC3)cc1)=NC(Cc1ncco1)c1nnc(C)n1-2` (stereo partly shown) [I-807]: the GI50 was less than 0.5 µM in assay [1] (72 h); less than 0.5 µM in the assay on VCaP cells (Homo sapiens, VCaP, 72 h); less than 0.5 µM in assay [2] (72 h).

Regarding `Cc1sc2c(c1C)C(c1ccc(NCC3CC4(C3)CN(c3ncc(C(=O)N[C@H]5CC[C@H](Oc6ccc(C#N)c(Cl)c6)CC5)cn3)C4)cc1)=NC(Cc1ncco1)c1nnc(C)n1-2` (stereo partly shown) [I-808], the GI50 in assay [1] (72 h) was less than 0.5 µM; in the assay with VCaP cells (Homo sapiens, VCaP, 72 h), 0.5 to 1.5 µM; in assay [2] (72 h), more than 3 µM.

Turning to `Cc1sc2c(c1C)C(c1ccc(C3CCC4(CCN(c5ccc(C(=O)N[C@H]6CC[C@H](Oc7ccc(C#N)c(Cl)c7)CC6)nn5)C4)C3)cc1)=N[C@@H](C)c1nnc(C)n1-2` (stereo partly drawn) [I-821, N-[4-(3-chloro-4-cyano-phenoxy)cyclohexyl]-6-[8-[4-[(9S)-4,5,9,13-tetramethyl-3-thia-1,8,11,12-tetrazatricyclo[8.3.0.02,6]trideca-2(6),4,7,10,12-pentaen-7-yl]phenyl]-2-azaspiro[4.4]nonan-2-yl]pyridazine-3-carboxamide], the GI50 in assay [1] (72 h) was less than 0.5 µM; in the assay with VCaP cells (Homo sapiens, VCaP, 72 h), less than 0.5 µM; in assay [2] (72 h), less than 0.5 µM.

For the compound `Cc1sc2c(c1C)C(c1ccc(C3CCC4(CCN(c5ccc(C(=O)N[C@H]6CC[C@H](Oc7ccc(C#N)c(Cl)c7)CC6)nn5)C4)C3)cc1)=N[C@@H](C)c1nnc(C)n1-2` (stereo partly drawn) [I-822, N-[4-(3-chloro-4-cyano-phenoxy)cyclohexyl]-6-[8-[4-[(9S)-4,5,9,13-tetramethyl-3-thia-1,8,11,12-tetrazatricyclo[8.3.0.02,6]trideca-2(6),4,7,10,12-pentaen-7-yl]phenyl]-2-azaspiro[4.4]nonan-2-yl]pyridazine-3-carboxamide], the GI50 (in assay [1]; in the assay with VCaP cells; in assay [2]) was less than 0.5 µM throughout.

On to `Cc1sc2c(c1C)C(c1ccc(C3CCC4(CCN(c5ccc(C(=O)N[C@H]6CC[C@H](Oc7ccc(C#N)c(Cl)c7)CC6)nn5)C4)C3)cc1)=N[C@@H](C)c1nnc(C)n1-2` (stereo partly drawn) [I-823, N-[4-(3-chloro-4-cyano-phenoxy)cyclohexyl]-6-[8-[4-[(9S)-4,5,9,13-tetramethyl-3-thia-1,8,11,12-tetrazatricyclo[8.3.0.02,6]trideca-2(6),4,7,10,12-pentaen-7-yl]phenyl]-2-azaspiro[4.4]nonan-2-yl]pyridazine-3-carboxamide], for which the GI50 (in assay [1]; with VCaP cells; in assay [2]) was less than 0.5 µM each time.

`Cc1sc2c(c1C)C(c1ccc(C3CCC4(CC3)CCN(c3ccc(C(=O)N[C@H]5CC[C@H](Oc6ccc(C#N)c(Cl)c6)CC5)nn3)C4)cc1)=N[C@@H](Cc1ncco1)c1nnc(C)n1-2` (stereo partly drawn) [I-824, N-((1r,4r)-4-(3-chloro-4-cyanophenoxy)cyclohexyl)-6-(8-(4-((S)-2,3,9-trimethyl-6-(oxazol-2-ylmethyl)-6H-thieno[3,2-f][1,2,4]triazolo[4,3-a][1,4]diazepin-4-yl)phenyl)-2-azaspiro[4.5]decan-2-yl)pyridazine-3-carboxamide]: the GI50 (in assay [1]; in the assay with VCaP cells; in assay [2]) was less than 0.5 µM each time.

On to `Cc1sc2c(c1C)C(c1ccc(N3C[C@@H]4CN(c5ccc(C(=O)N[C@H]6CC[C@@H](Oc7ccc(C#N)c(Cl)c7)CC6)nn5)C[C@@H]4C3)cc1)=N[C@@H](Cc1ncco1)c1nnc(C)n1-2` [I-825, 6-[(3aR,6aS)-2-[4-[(9S)-4,5,13-trimethyl-9-(oxazol-2-ylmethyl)-3-thia-1,8,11,12-tetrazatricyclo[8.3.0.02,6]trideca-2(6),4,7,10,12-pentaen-7-yl]phenyl]-1,3,3a,4,6,6a-hexahydropyrrolo[3,4-c]pyrrol-5-yl]-N-[4-(3-chloro-4-cyano-phenoxy)cyclohexyl]pyridazine-3-carboxamide], for which the GI50 in assay [1] (72 h) was less than 0.5 µM; in the assay with VCaP cells (Homo sapiens, VCaP, 72 h), less than 0.5 µM; in assay [2] (72 h), less than 0.5 µM.

As to `Cc1sc2c(c1C)C(c1ccc(N3C[C@@]4(C)CN(c5ccc(C(=O)N[C@H]6CC[C@H](Oc7ccc(C#N)c(Cl)c7)CC6)nn5)C[C@@]4(C)C3)cc1)=N[C@@H](Cc1ncco1)c1nnc(C)n1-2` [I-826, 6-[(3aS,6aR)-3a,6a-dimethyl-2-[4-[(9S)-4,5,13-trimethyl-9-(oxazol-2-ylmethyl)-3-thia-1,8,11,12-tetrazatricyclo[8.3.0.02,6]trideca-2(6),4,7,10,12-pentaen-7-yl]phenyl]-1,3,4,6-tetrahydropyrrolo[3,4-c]pyrrol-5-yl]-N-[4-(3-chloro-4-cyano-phenoxy)cyclohexyl]pyridazine-3-carboxamide], the GI50 in assay [1] (72 h) was less than 0.5 µM; in the assay on VCaP cells (Homo sapiens, VCaP, 72 h) it was less than 0.5 µM; in assay [2] (72 h), less than 0.5 µM.
